Measured values published in patent publication US20240124450A1, “Novel SIK Inhibitors” (Pfizer Inc., priority 2022, published 2024).
Read-outs that look alike come from different tables or passages of the source.

Key:
[1] = system: IL10 release from human monocyte derived macrophages stimulated with LPS; assay: SIK macrophage cytokine assay, increase of IL10 release; assay type: cell-based; conditions: 1 ng/mL LPS, 4 hours, HTRF
Experimental: (§1) Cytokine Assays: SIK Macrophage Assay Cytokine activity is determined by measuring the effect of a test agent on the inhibitory release of the cytokine TNFα and the increasing release of the cytokine IL10 from human monocyte derived macrophages (human macrophages) stimulated with lipopolysaccharide (LPS). At the time of assay, human macrophages (CGPS group Pfizer Groton, CT) are removed from cryopreservation, thawed quickly at 37° C., diluted in thaw medium (OptiMEM—Gibco medium, 10% heat inactivated fetal bovine serum (HIFBS)), and then centrifuged at 200×g for 10 minutes. […] After ˜60 minutes in an incubator at 37° C. in a humidified environment in 5% carbon dioxide the cells are stimulated by the addition of 5 μL of LPS (10 ng/mL; Sigma) and the assay plate is returned to an incubator at 37° C. in a humidified environment in 5% carbon dioxide for 4 hours. […] The final concentration of DMSO in the assay is approximately 0.1%. After 4 hours, the assay plate is removed from the incubator and centrifuged at 1500 rpm for 10 minutes. A portion of the resulting cell supernatant is then used to determine the amount of IL-10 and TNFα in each well. Cytokine measurements are made using human IL-10 and TNFα HTRF assay kits (Perkin Elmer) following the manufacturer's assay protocol.

[2] = target: SIK2 (Homo sapiens (Human), UniProt Q9H0K1); assay: Pan SIK MS IC50 enzyme assay (SIK2); assay type: biochemical; conditions: 1 mM ATP, substrate peptide AQT0252, LCMS/MS detection
Experimental: (§2) Enzyme Assay: Pan SIK MS IC50 Assay
(§3) Salt Induced Kinase (SIK) activity is determined by measuring the effect of a test agent on the activity of the appropriate SIK enzyme to phosphorylate its corresponding substrate. […] The phosphorylated substrate product resulting from the kinase reaction is detected by LCMS/MS, and the area under the peak curve correlates with kinase activity. […] The plates are spun at 1000 rpm for 30 seconds to ensure compounds are at the bottom of the well before removing foil covers. 0.15 μL HPE (assay std) and ZPE (DMSO) are added to the ARP using an HP D300 dispenser. Plates are spun again at 1000 rpm for 30 seconds. […] Plates are spun at 1000 rpm for 30 seconds. Plates are then sealed and incubated at RT for 10 minutes. Following incubation, 5 μL of 5× peptide reagent is added with a Multidrop Combi and designated small volume cassette to initiate the kinase reaction. Plates are spun at 1000 rpm for 30 seconds. Plates are then sealed and incubated at RT for 90 minutes. The assay is stopped by the addition of 5 μl of 120 mM EDTA added with a Multidrop Combi and designated small volume cassette (20 mM final concentration). Plates are spun at 1000 rpm for 30 seconds. 10 μl of the final reaction mix from each of the three individual enzyme plates are transferred by a Platemate Plus to the same corresponding 96 well deepwell plate containing 70 μl Water/Methanol (85/15%) for multiplex MS detection ([…]). Using Activity Base (ABase), an idbs data analysis software tool, the reported area ratio unit data is associated to compound, batch and dose information, the data is evaluated for quality, and the percent inhibition of each well is calculated. The data from each Max effect/HPE and Min effect/ZPE control wells are assessed, and outliers are excluded from all further calculations. The mean and standard deviation of the HPE and ZPE are then calculated for each plate, along with the Z Prime. The compound data is converted into % effect, using the average ZPE and HPE controls as 0% and 100% activity, respectively.

[3] = target: SIK1 (Homo sapiens (Human), UniProt P57059); assay: Pan SIK MS IC50 enzyme assay (SIK1); assay type: biochemical; conditions: 1 mM ATP, substrate peptide AQT0868, LCMS/MS detection
Experimental: as §2, §3

[4] = target: SIK3 (Homo sapiens (Human), UniProt Q9Y2K2); assay: Pan SIK MS IC50 enzyme assay (SIK3); assay type: biochemical; conditions: 1 mM ATP, substrate peptide AQT0508, LCMS/MS detection
Experimental: as §2, §3

[5] = system: TNFα release from human monocyte derived macrophages stimulated with LPS; assay: SIK macrophage cytokine assay, inhibition of TNFα release; assay type: cell-based; conditions: 1 ng/mL LPS, 4 hours, HTRF, read-out: TNFa IC50
Experimental: as §1

Chain of SIK3 (Q9Y2K2 whole entry, species assumed): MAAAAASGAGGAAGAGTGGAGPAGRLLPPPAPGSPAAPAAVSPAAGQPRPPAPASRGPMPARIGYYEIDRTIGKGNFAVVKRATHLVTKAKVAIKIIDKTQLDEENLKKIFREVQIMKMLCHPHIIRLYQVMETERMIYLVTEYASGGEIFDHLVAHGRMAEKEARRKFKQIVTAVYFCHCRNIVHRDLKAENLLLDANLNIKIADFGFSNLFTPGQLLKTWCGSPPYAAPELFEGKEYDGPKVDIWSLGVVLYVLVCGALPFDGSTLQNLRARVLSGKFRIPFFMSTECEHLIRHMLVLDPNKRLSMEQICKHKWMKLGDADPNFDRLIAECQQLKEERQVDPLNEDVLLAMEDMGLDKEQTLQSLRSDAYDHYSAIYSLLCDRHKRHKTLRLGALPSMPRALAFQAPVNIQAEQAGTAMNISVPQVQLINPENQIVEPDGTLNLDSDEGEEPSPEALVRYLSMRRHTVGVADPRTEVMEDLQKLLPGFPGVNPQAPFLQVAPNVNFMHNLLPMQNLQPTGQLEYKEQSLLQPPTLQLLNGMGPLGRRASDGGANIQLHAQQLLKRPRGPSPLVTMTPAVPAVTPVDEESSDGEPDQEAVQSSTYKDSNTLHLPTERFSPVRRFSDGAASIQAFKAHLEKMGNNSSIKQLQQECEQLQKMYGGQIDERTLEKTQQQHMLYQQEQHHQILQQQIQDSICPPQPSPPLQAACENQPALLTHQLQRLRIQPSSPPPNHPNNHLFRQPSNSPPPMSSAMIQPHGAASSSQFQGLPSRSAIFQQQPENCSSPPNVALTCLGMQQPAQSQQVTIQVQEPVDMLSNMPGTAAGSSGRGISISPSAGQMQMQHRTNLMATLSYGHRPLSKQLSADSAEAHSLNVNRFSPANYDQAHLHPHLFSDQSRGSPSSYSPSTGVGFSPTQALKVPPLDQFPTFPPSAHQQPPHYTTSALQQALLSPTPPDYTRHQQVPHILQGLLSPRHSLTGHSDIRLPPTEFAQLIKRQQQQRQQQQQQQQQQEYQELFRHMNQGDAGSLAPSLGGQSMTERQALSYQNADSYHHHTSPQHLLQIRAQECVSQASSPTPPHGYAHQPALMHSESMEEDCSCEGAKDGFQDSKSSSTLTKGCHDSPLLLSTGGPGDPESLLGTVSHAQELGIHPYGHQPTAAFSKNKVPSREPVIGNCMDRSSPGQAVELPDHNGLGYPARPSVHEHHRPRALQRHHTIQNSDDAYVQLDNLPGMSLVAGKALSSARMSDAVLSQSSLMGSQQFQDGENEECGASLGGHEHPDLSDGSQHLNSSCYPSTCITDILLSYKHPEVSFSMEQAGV
Chain of SIK2 (Q9H0K1 whole entry, species assumed): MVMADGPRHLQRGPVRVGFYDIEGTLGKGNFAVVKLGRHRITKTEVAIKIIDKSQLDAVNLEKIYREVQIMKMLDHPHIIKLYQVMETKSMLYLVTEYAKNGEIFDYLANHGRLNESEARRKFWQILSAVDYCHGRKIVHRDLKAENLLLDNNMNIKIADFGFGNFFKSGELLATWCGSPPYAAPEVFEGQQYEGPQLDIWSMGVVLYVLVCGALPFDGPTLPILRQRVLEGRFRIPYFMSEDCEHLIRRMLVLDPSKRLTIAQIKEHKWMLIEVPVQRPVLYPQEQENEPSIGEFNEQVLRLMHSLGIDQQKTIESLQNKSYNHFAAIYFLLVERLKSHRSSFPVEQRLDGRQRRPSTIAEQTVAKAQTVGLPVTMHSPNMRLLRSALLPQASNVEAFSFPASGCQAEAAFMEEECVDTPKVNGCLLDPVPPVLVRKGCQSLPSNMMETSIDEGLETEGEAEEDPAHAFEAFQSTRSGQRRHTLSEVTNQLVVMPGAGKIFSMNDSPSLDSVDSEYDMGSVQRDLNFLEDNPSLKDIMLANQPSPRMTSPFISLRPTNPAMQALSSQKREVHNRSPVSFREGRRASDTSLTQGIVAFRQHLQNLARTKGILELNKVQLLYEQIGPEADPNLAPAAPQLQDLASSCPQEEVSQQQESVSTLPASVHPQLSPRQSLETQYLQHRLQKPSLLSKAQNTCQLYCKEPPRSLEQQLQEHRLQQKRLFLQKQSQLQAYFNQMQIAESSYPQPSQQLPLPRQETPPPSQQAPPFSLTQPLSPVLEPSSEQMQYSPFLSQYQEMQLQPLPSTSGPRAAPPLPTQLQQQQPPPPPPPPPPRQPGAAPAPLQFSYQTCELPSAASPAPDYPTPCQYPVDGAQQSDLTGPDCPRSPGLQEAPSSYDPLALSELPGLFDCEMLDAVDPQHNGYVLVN
Chain of SIK1 (P57059 whole entry, species assumed): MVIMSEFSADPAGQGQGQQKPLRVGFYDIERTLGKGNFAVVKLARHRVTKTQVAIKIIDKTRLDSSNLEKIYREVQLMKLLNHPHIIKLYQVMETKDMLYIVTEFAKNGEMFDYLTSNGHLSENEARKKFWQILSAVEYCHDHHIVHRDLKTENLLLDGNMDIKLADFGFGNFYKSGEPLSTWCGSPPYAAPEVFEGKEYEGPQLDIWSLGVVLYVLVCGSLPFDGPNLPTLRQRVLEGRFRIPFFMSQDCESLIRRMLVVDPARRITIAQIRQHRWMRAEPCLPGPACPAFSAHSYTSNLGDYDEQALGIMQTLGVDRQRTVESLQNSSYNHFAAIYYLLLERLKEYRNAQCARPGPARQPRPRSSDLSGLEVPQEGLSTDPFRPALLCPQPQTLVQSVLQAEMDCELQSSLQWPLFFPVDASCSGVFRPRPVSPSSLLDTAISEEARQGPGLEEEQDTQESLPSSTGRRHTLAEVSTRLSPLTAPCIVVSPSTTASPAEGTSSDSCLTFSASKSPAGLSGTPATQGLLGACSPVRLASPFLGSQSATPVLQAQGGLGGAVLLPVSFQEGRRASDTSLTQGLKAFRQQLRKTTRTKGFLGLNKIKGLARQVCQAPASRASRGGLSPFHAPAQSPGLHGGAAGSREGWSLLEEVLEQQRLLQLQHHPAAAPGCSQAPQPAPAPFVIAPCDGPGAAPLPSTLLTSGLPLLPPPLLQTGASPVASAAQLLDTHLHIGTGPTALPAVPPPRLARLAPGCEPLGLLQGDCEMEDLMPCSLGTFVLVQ

Compound	IC50 [2] [nM]	IC50 [3] [nM]	IC50 [4] [nM]	EC50 ([1]; Macrophage) [nM]	IC50 ([5]; Macrophage) [nM]	EC50 [1] [nM]	IC50 [5] [nM]
3-(3-((1-Aminocyclopentyl)methoxy)-4-cyano-5-(methylthio)phenyl)pyrazolo[1,5-a]pyridine-4-carbonitrile [Example 37]	0.4	0.3	0.9	–	–	27	3.9
CC[C@@H]1CCC[C@@]1(N)COc1cc(-c2cnc3cccc(OC)n23)cc(SC)c1C#N (mixture of isomers) [Example 9, 2-(((1S,2R)-1-Amino-2-ethylcyclopentyl)methoxy)-4-(5-methoxyimidazo[1,2-a]pyridin-3-yl)-6-(methylthio)benzonitrile and 2-(((1R,2S)-1-amino-2-ethylcyclopentyl)methoxy)-4-(5-methoxyimidazo[1,2-a]pyridin-3-yl)-6-(methylthio)benzonitrile]	–	–	–	12	5.3	–	–
CSc1cc(-c2cnc3cccc(C#N)n23)cc(OC[C@@]2(N)CCC(F)(F)C2)c1C#N (mixture of isomers) [Example 12, (R)-3-(3-((1-Amino-3,3-difluorocyclopentyl)methoxy)-4-cyano-5-(methylthio)phenyl)imidazo[1,2-a]pyridine-5-carbonitrile and (S)-3-(3-((1-amino-3,3-difluorocyclopentyl)methoxy)-4-cyano-5-(methylthio)phenyl)imidazo[1,2-a]pyridine-5-carbonitrile]	–	–	–	67	20.1	–	–

Continued, in another order:

IC50 [2] [nM]	IC50 [3] [nM]	IC50 [4] [nM]	EC50 ([1]; Macrophage) [nM]	IC50 ([5]; Macrophage) [nM]	Compound	EC50 [1] [nM]	IC50 [5] [nM]
1.5	0.6	1.2	45	13.7	CSc1cc(-c2cnc3cccc(C#N)n23)cc(OC[C@@]2(N)CCCC(C)(C)C2)c1C#N (mixture of isomers) [Example 14, (R)-3-(3-((1-Amino-3,3-dimethylcyclohexyl)methoxy)-4-cyano-5-(methylthio)phenyl)imidazo[1,2-a]pyridine-5-carbonitrile and (S)-3-(3-((1-amino-3,3-dimethylcyclohexyl)methoxy)-4-cyano-5-(methylthio)phenyl)imidazo[1,2-a]pyridine-5-carbonitrile]	–	–
1.3	1.6	5.9	357	32.4	CSc1cc(-c2cnc3ccccn23)cc(OC[C@]2(N)CCSC2)c1C#N (mixture of isomers) [Example 22, (R)-2-((3-Aminotetrahydrothiophen-3-yl)methoxy)-4-(imidazo[1,2-a]pyridin-3-yl)-6-(methylthio)benzonitrile and (S)-2-((3-Aminotetrahydrothiophen-3-yl)methoxy)-4-(imidazo[1,2-a]pyridin-3-yl)-6-(methylthio)benzonitrile]	–	–
0.9	2.3	5.3	177	15.6	CSc1cc(-c2cnc3ccccn23)cc(OC[C@@]2(N)CCC(F)(F)C2)c1C#N (mixture of isomers) [Example 25, (R)-2-((1-Amino-3,3-difluorocyclopentyl)methoxy)-4-(imidazo[1,2-a]pyridin-3-yl)-6-(methylthio)benzonitrile and (S)-2-((1-amino-3,3-difluorocyclopentyl)methoxy)-4-(imidazo[1,2-a]pyridin-3-yl)-6-(methylthio)benzonitrile]	–	–
–	–	–	14	4.8	CC[C@@H]1CCC[C@](N)(COc2cc(-c3cnc4cccc(OC)n34)cc(OC)c2C#N)C1 [Example 16, 2-(((1R,3R)-1-Amino-3-ethylcyclohexyl)methoxy)-6-methoxy-4-(5-methoxyimidazo[1,2-a]pyridin-3-yl)benzonitrile and 2-(((16,36)-1-Amino-3-ethylcyclohexyl)methoxy)-6-methoxy-4-(5-methoxyimidazo[1,2-a]pyridin-3-yl)benzonitrile]	–	–
